Results taken from article PMC9626498 (Scientific Reports, 2022).

What was measured:
[1] = target: acetylcholinesterase (AChE) (Electrophorus electricus, UniProt O42275); experiment: modified Ellman spectrophotometric assay; type: biochemical
[2] = target: butyrylcholinesterase (BChE) (Equus caballus, UniProt P81908); experiment: modified Ellman spectrophotometric assay; type: biochemical
Sequence of butyrylcholinesterase (BChE) (P81908 whole entry): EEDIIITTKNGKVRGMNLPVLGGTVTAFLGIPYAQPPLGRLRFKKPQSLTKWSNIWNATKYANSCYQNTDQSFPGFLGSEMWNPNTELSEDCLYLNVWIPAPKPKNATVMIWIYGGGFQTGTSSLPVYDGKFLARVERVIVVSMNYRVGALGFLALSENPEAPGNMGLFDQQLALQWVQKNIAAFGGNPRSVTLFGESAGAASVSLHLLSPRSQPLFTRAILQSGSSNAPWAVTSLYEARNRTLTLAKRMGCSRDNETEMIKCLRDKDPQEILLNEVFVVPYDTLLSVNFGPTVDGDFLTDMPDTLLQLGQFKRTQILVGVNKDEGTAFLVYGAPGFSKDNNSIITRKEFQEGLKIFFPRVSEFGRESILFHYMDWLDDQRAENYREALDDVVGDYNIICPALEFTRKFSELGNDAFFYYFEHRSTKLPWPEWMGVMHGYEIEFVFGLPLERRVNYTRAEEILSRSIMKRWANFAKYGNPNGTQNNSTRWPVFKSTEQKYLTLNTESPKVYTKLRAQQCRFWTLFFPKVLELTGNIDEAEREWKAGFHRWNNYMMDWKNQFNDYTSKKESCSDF

Sequence of acetylcholinesterase (AChE) (O42275 24-633): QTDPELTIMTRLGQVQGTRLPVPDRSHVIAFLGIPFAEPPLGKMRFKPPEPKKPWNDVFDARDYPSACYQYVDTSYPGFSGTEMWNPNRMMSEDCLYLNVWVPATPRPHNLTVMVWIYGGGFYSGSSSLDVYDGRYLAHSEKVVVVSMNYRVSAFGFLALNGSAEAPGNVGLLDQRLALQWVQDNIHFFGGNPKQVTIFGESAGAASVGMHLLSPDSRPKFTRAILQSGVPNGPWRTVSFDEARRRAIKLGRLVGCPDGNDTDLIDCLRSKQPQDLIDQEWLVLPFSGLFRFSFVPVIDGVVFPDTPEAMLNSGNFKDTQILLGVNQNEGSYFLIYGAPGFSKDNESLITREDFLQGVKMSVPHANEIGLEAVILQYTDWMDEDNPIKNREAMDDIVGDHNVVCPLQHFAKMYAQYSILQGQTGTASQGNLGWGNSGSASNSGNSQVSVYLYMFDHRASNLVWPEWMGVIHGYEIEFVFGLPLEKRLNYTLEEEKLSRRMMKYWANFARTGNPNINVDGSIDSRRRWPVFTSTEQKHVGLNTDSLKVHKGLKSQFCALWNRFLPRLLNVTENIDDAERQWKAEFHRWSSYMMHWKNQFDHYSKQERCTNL

Structure (SMILES): C[C@@H]1O[C@@H](O[C@H]2C(=O)c3c(O)cc(O)cc3O[C@@H]2c2cc(O)c(O)c(O)c2)[C@H](O)[C@H](O)[C@H]1O [compound 1, dihydromyricetin 3-O-rhamnoside]
- IC50 [1]: 70 ± 8 µM
- IC50 [2]: 71 ± 4 µM
